Experimental data published in the supplement of paper PMC13380429.

What was measured:
Conditions in all cases: 72 h
HepG2 [1] = test: cell viability relative to DMSO; higher = less toxic
Vero E6 [2] = test: as above
Caco-2 [3] = test: as above
Calu-3 [4] = test: as above
U2OS [5] = test: as above
HepG2 [6] = test: relative viability EC50 (midpoint between 100% and the lowest measured viability); higher = less toxic
Vero E6 [7] = test: as above
Caco-2 [8] = test: as above
Calu-3 [9] = test: as above
U2OS [10] = test: as above
HepG2 [11] = test: drug sensitivity score (DSS) for viability; higher = more toxic; extreme values may be limits of the assay
Vero E6 [12] = test: as above
Caco-2 [13] = test: as above
Calu-3 [14] = test: as above
U2OS [15] = test: as above

Compound	cell viability (HepG2 [1]; 1 nM) [%]	cell viability (HepG2 [1]; 10 nM) [%]	cell viability (HepG2 [1]; 100 nM) [%]	cell viability (HepG2 [1]; 1000 nM) [%]	cell viability (HepG2 [1]; 10000 nM) [%]	cell viability (Vero E6 [2]; 1 nM) [%]	cell viability (Vero E6 [2]; 10 nM) [%]	cell viability (Vero E6 [2]; 100 nM) [%]	cell viability (Vero E6 [2]; 1000 nM) [%]	cell viability (Vero E6 [2]; 10000 nM) [%]	cell viability (Caco-2 [3]; 1 nM) [%]	cell viability (Caco-2 [3]; 10 nM) [%]	cell viability (Caco-2 [3]; 100 nM) [%]	cell viability (Caco-2 [3]; 1000 nM) [%]	cell viability (Caco-2 [3]; 10000 nM) [%]	cell viability (Calu-3 [4]; 1 nM) [%]	cell viability (Calu-3 [4]; 10 nM) [%]	cell viability (Calu-3 [4]; 100 nM) [%]	cell viability (Calu-3 [4]; 1000 nM) [%]	cell viability (Calu-3 [4]; 10000 nM) [%]	cell viability (U2OS [5]; 1 nM) [%]	cell viability (U2OS [5]; 10 nM) [%]	cell viability (U2OS [5]; 100 nM) [%]	cell viability (U2OS [5]; 1000 nM) [%]	cell viability (U2OS [5]; 10000 nM) [%]	relative viability EC50 (HepG2 [6]) [µM]	relative viability EC50 (Vero E6 [7]) [µM]	relative viability EC50 (Caco-2 [8]) [µM]	relative viability EC50 (Calu-3 [9]) [µM]	relative viability EC50 (U2OS [10]) [µM]	drug sensitivity score (HepG2 [11])	drug sensitivity score (Vero E6 [12])	drug sensitivity score (Caco-2 [13])	drug sensitivity score (Calu-3 [14])	drug sensitivity score (U2OS [15])
CCC(N)C(O)c1ccc(O)c(O)c1 (stereo not given) [ethylnorepinephrine]	100	110	98.7	109	102	93.9	102	104	107	112	93.7	95.5	103	89.9	95.1	101	99.4	108	91.9	104	100	94.8	98.4	98.4	99.3	> 10	> 10	> 10	> 10	> 10	0	0	0	0	0
CCOC(=O)Nc1ccc(NCc2ccc(F)cc2)nc1N [flupirtine]	89.2	101	103	98.4	99.8	104	111	98.2	98.6	97	106	102	99.6	87.7	96	105	113	98.6	88.2	91.3	100	99.1	101	101	99.5	> 10	> 10	> 10	> 10	> 10	0	0	0.6	0.5	0
